Measurements as given in PubChem BioAssay (NCI).
Values joined by “and” are separate entries in the source; they are usually repeats but may differ in a detail not shown here. Equal values may be shown once.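 Tested at 5 concentrations; 48 h exposure; 96-well plates; endpoints linearly interpolated, else capped at highest concentration. Here, GI50 denotes the concentration required for 50% inhibition of growth. TGI marks complete inhibition of growth.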

Tests used:
Test in all cases: inhibition of tumour cell growth, NCI panel, 48 h
A498 renal = test system: A498 renal
ACHN renal = test system: ACHN renal
BT-549 breast = test system: BT-549 breast
HOP-92 NSCLC = test system: HOP-92 NSCLC
HT29 colon = test system: HT29 colon
IGROV1 ovarian = test system: IGROV1 ovarian
K-562 leukemia = test system: K-562 leukemia
KM12 colon = test system: KM12 colon
M19-MEL melanoma = test system: M19-MEL melanoma
MCF7 breast = test system: MCF7 breast
MDA-MB-231 breast = test system: MDA-MB-231 breast
MDA-MB-435 = test system: MDA-MB-435
MOLT-4 leukemia = test system: MOLT-4 leukemia
NCI-H23 lung = test system: NCI-H23 lung
OVCAR-5 ovarian = test system: OVCAR-5 ovarian
RXF 393 renal = test system: RXF 393 renal
SK-MEL-2 melanoma = test system: SK-MEL-2 melanoma
SK-MEL-5 melanoma = test system: SK-MEL-5 melanoma
SR leukemia = test system: SR leukemia
SW-620 colon = test system: SW-620 colon

Which GI50 (A498 renal) does the source give for `O=NN(CCCl)C(=O)NCCCl` here?
Its GI50 is 178 µM.

And the TGI (A498 renal)?
Its TGI is 250 µM and 221 µM.

What about the GI50 (ACHN renal) of the same compound?
Its GI50 is 64.4 µM.

What about the TGI (ACHN renal) of the same compound?
Its TGI is 170 µM and 172 µM.

And the GI50 (BT-549 breast)?
Its GI50 is 47.3 µM and 251 µM.

What about the TGI (BT-549 breast) of the same compound?
Its TGI is 92.8 µM and 148 µM and > 300 µM.

And the GI50 (HOP-92 NSCLC)?
Its GI50 is 193 µM.

What about the TGI (HOP-92 NSCLC) of the same compound?
Its TGI is 151 µM and > 262 µM.

And the GI50 (HT29 colon)?
The GI50 was 56.4 µM and 209 µM.

What about the TGI (HT29 colon) of the same compound?
The TGI was 133 µM and 166 µM and > 361 µM.

And the GI50 (IGROV1 ovarian)?
Its GI50 is 55.9 µM and 196 µM.

And the TGI (IGROV1 ovarian)?
The TGI was 176 µM and 150 µM and > 374 µM.

And the TGI (K-562 leukemia)?
Its TGI is 44.6 µM and 206 µM and 280 µM.

And the GI50 (KM12 colon)?
Its GI50 is over 500 µM.

What about the TGI (KM12 colon) of the same compound?
The TGI was 250 µM and 194 µM and > 500 µM.

And the TGI (M19-MEL melanoma)?
Its TGI is 160 µM.

And the GI50 (MCF7 breast)?
Its GI50 is 231 µM.

And the TGI (MCF7 breast)?
The TGI was 250 µM and 191 µM and > 312 µM.

What about the GI50 (MDA-MB-231 breast) of the same compound?
Its GI50 is 61.8 µM and 224 µM.

What about the TGI (MDA-MB-231 breast) of the same compound?
The TGI was 164 µM and 160 µM and > 295 µM.

What about the GI50 (MDA-MB-435) of the same compound?
Its GI50 is 50 µM and 331 µM.

And the TGI (MDA-MB-435)?
The TGI was 127 µM and 147 µM and > 500 µM.

And the GI50 (MOLT-4 leukemia)?
Its GI50 is 39.3 µM and 110 µM.

And the TGI (MOLT-4 leukemia)?
The TGI was 151 µM and 161 µM and 320 µM.

And the GI50 (NCI-H23 lung)?
Its GI50 is over 272 µM.

And the TGI (NCI-H23 lung)?
Its TGI is 228 µM and 182 µM and > 367 µM.

What about the GI50 (OVCAR-5 ovarian) of the same compound?
The GI50 was 52.3 µM and > 500 µM.

And the TGI (OVCAR-5 ovarian)?
Its TGI is 104 µM and 184 µM and > 500 µM.

And the GI50 (RXF 393 renal)?
The GI50 was 45.3 µM and > 238 µM.

What about the TGI (RXF 393 renal) of the same compound?
Its TGI is 86.6 µM and 149 µM and > 299 µM.

And the TGI (SK-MEL-2 melanoma)?
Its TGI is 115 µM and 178 µM and > 500 µM.

What about the GI50 (SK-MEL-5 melanoma) of the same compound?
Its GI50 is 95.6 µM and 362 µM.

And the TGI (SK-MEL-5 melanoma)?
Its TGI is 250 µM and 161 µM and > 500 µM.

And the GI50 (SR leukemia)?
The GI50 was 38.5 µM.

And the TGI (SR leukemia)?
Its TGI is 122 µM and 97.7 µM.

And the GI50 (SW-620 colon)?
Its GI50 is 40.1 µM and 102 µM.

What about the TGI (SW-620 colon) of the same compound?
The TGI was 102 µM and 130 µM and 229 µM.
